Numbered stars: 1 amine (or outer) side, 2 acyl side, 3 side chain; on linkers, the order of the positions; unused ones are H or OH. Bridge positions count the residues as written; N and C are the ends. Square brackets hold non-standard residues; d marks the D form. Peptide text beside a SMILES is read from it. * marks the point of attachment. ξ: configuration not given here. Phe(3-CF3) = N[C@@H](Cc1cccc(C(F)(F)F)c1)C(=O)O; Phe(4-COOH) = N[C@@H](Cc1ccc(C(=O)O)cc1)C(=O)O; Bip = N[C@@H](Cc1ccc(-c2ccccc2)cc1)C(=O)O; NH(CH2)14COOH = O=C(O)CCCCCCCCCCCCCCN*; γGlu = O=C(O)[C@H](CCC(=O)[*:2])N[*:1]; NH(CH2)12COOH = O=C(O)CCCCCCCCCCCCN*; Val(3-OH) = CC(C)(O)[C@H](N)C(=O)O; Cha = N[C@@H](CC1CCCCC1)C(=O)O; aThr = C[C@H](O)[C@H](N)C(=O)O; Thr(3ξ) = CC(O)[C@H](N)C(=O)O; Dap(Me) = CNC[C@H](N)C(=O)O; dDab = NCC[C@@H](N)C(=O)O; Carboxymethyl = O=C(O)C*; Nle = CCCC[C@H](N)C(=O)O; Orn = NCCC[C@H](N)C(=O)O; Dab = NCC[C@H](N)C(=O)O; AEEA = NCCOCCOCC(=O)O

The experiment deals with T1, PD-1/PD-L1 interaction (PE-labeled human PD-L1-Ig binding to Jurkat cell line over-expressing human PD-1) (Homo sapiens, UniProt Q15116).
T1 construct: expressed in transfected cells; host or cells: Jurkat
T1 sequence (Q15116 25-288): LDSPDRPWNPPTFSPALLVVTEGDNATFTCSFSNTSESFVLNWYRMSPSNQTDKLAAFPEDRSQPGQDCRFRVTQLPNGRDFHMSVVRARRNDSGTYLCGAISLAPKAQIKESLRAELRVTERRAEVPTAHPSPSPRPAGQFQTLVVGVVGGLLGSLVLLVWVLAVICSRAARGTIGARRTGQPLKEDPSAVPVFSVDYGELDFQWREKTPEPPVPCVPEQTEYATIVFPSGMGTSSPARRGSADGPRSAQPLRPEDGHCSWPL
Briefly: Jurkat-PD-1 Cell Binding High-Content Screening Assay (CBA). It counts as cell-based. The note with it: Jurkat cell line over-expressing human PD-1; PE-labeled PD-L1-Ig 20 nM final; read-out: Jurkat hPD1-PDL1 IC50. The essentials:
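Human PD-L1-Ig carrying a covalent PE label on its Ig tag serves as the probe, applied at 20 nM final to compound-treated (2 h, 37° C) Jurkat-hPD-1 cells in medium with 10% fetal calf serum. After one hour, fixation and nuclear staining precede high-content image analysis.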
Regarding `CNC[C@@H]1NC(=O)CSC[C@@H](C(=O)N[C@@H](CCN)C(=O)NCCOCCOCC(=O)NCCCCCCCCCCCCCCC(=O)O)NC(=O)[C@H](CCC(=O)O)NC(=O)[C@H](C(C)C)NC(=O)[C@H](CC2CCCCC2)NC(=O)[C@H](CCN)NC(=O)[C@@H](CC(C)C)NC(=O)[C@H](CCCN)NC(=O)[C@H](Cc2ccc(C(=O)O)cc2)NC(=O)[C@H](Cc2ccc(-c3ccccc3)cc2)NC(=O)[C@H](Cc2ccc(C(=O)O)cc2)NC(=O)[C@H](Cc2cccc(C(F)(F)F)c2)NC(=O)[C@H](CC(=O)O)NC(=O)[C@H](Cc2ccc(C(=O)O)cc2)NC1=O` [Compound 3896] ({CH2CO}-[Dap(Me)][Phe(4-COOH)]D[Phe(3-CF3)][Phe(4-COOH)][Bip][Phe(4-COOH)][Orn][dL][Dab][Cha]VEC[Dab][AEEA]-{NH(CH2)14COOH}; thioether N-14), the IC50 was found to be 224 nM.
As for `CCCC[C@@H]1NC(=O)CSC[C@@H](C(=O)N[C@H](CCN)C(=O)NCCOCCOCC(=O)N[C@@H](CCC(=O)NCCOCCOCC(=O)NCCCCCCCCCCCCC(=O)O)C(=O)O)NC(=O)[C@H](CCC(=O)O)NC(=O)[C@H](C(C)C)NC(=O)[C@H](CC2CCCCC2)NC(=O)[C@H](CCN)NC(=O)[C@@H](CC(C)C)NC(=O)[C@H](CCCN)NC(=O)[C@H](Cc2ccc(OCC(=O)O)cc2)NC(=O)[C@H](Cc2ccc(-c3ccccc3)cc2)NC(=O)[C@H](Cc2ccc(C(=O)O)cc2)NC(=O)[C@H](Cc2cccc(C(F)(F)F)c2)NC(=O)[C@H](CC(=O)O)NC(=O)[C@H](Cc2ccc(OCC(=O)O)cc2)NC1=O` [Compound 3897] ({CH2CO}-[Nle]Y(Carboxymethyl)D[Phe(3-CF3)][Phe(4-COOH)][Bip]Y(Carboxymethyl)[Orn][dL][Dab][Cha]VEC[dDab][AEEA][γGlu][AEEA]-{NH(CH2)12COOH}; thioether N-14), the IC50 is 63.6 nM.
With `CC(=O)NCCCC[C@@H]1NC(=O)[C@H](C(C)(C)O)NC(=O)[C@H](CC2CCCCC2)NC(=O)[C@H](CCN)NC(=O)[C@@H](CC(C)C)NC(=O)[C@H](CCCN)NC(=O)[C@H](Cc2ccc(OCC(=O)O)cc2)NC(=O)[C@H](Cc2ccc(-c3ccccc3)cc2)NC(=O)[C@H](Cc2ccc(C(=O)O)cc2)NC(=O)[C@H](Cc2cccc(C(F)(F)F)c2)NC(=O)[C@H](CC(=O)O)NC(=O)[C@H](Cc2ccc(OCC(=O)O)cc2)NC(=O)[C@H]([C@H](C)O)NC(=O)CSC[C@@H](C(=O)N[C@H](CCN)C(=O)NCCOCCOCC(=O)N[C@@H](CCC(=O)NCCOCCOCC(=O)NCCCCCCCCCCCCC(=O)O)C(=O)O)NC1=O` [Compound 3899] ({CH2CO}-[aThr]Y(Carboxymethyl)D[Phe(3-CF3)][Phe(4-COOH)][Bip]Y(Carboxymethyl)[Orn][dL][Dab][Cha][Val(3-OH)]K(Ac)C[dDab][AEEA][γGlu][AEEA]-{NH(CH2)12COOH}; thioether N-14), the IC50 turned out to be 27.4 nM.
Under `CC(C)C[C@H]1NC(=O)[C@H](CCCN)NC(=O)[C@H](Cc2ccc(C(=O)O)cc2)NC(=O)[C@H](Cc2ccc(-c3ccccc3)cc2)NC(=O)[C@H](Cc2ccc(C(=O)O)cc2)NC(=O)[C@H](Cc2cccc(C(F)(F)F)c2)NC(=O)[C@H](CC(=O)O)NC(=O)[C@H](Cc2ccc(OCC(=O)O)cc2)NC(=O)[C@H](CO)NC(=O)CSC[C@@H](C(=O)N[C@@H](CCN)C(=O)NCCOCCOCC(=O)N[C@@H](CO)C(=O)N[C@@H](CO)C(=O)N[C@@H](CO)C(=O)N[C@@H](CO)C(=O)N[C@@H](CCC(=O)NCCCCCCCCCCCCCCC(=O)O)C(=O)O)NC(=O)[C@H](CO)NC(=O)[C@H](C(C)(C)O)NC(=O)[C@H](CC2CCCCC2)NC(=O)[C@H](CCN)NC1=O` [Compound 3900] ({CH2CO}-SY(Carboxymethyl)D[Phe(3-CF3)][Phe(4-COOH)][Bip][Phe(4-COOH)][Orn][dL][Dab][Cha][Val(3-OH)]SC[Dab][AEEA]SSSSE(NH(CH2)14COOH)-OH; thioether N-14) stands 185 nM.
As for `CNC[C@@H]1NC(=O)CSC[C@@H](C(=O)N[C@@H](CCN)C(=O)NCCOCCOCC(=O)N[C@@H](CO)C(=O)N[C@@H](CO)C(=O)N[C@@H](CO)C(=O)N[C@@H](CO)C(=O)N[C@@H](CCC(=O)NCCCCCCCCCCCCCCC(=O)O)C(=O)O)NC(=O)[C@H](Cc2cnc[nH]2)NC(=O)[C@H](C(C)(C)O)NC(=O)[C@H](CC2CCCCC2)NC(=O)[C@H](CCN)NC(=O)[C@@H](CC(C)C)NC(=O)[C@H](CCCN)NC(=O)[C@H](Cc2ccc(C(=O)O)cc2)NC(=O)[C@H](Cc2ccc(-c3ccccc3)cc2)NC(=O)[C@H](Cc2ccc(C(=O)O)cc2)NC(=O)[C@H](Cc2cccc(C(F)(F)F)c2)NC(=O)[C@H](CC(=O)O)NC(=O)[C@H](Cc2ccc(OCC(=O)O)cc2)NC1=O` [Compound 3901] ({CH2CO}-[Dap(Me)]Y(Carboxymethyl)D[Phe(3-CF3)][Phe(4-COOH)][Bip][Phe(4-COOH)][Orn][dL][Dab][Cha][Val(3-OH)]HC[Dab][AEEA]SSSSE(NH(CH2)14COOH)-OH; thioether N-14), the concentration for half-maximal inhibition (IC50) turned out to be 173 nM.
Under `CC(C)C[C@H]1NC(=O)[C@H](CCCN)NC(=O)[C@H](Cc2ccc(OCC(=O)O)cc2)NC(=O)[C@H](Cc2ccc(-c3ccccc3)cc2)NC(=O)[C@H](Cc2ccc(C(=O)O)cc2)NC(=O)[C@H](Cc2cccc(C(F)(F)F)c2)NC(=O)[C@H](CC(=O)O)NC(=O)[C@H](Cc2ccc(OCC(=O)O)cc2)NC(=O)[C@H](C(C)O)NC(=O)CSC[C@@H](C(=O)N[C@@H](CCN)C(=O)NCCOCCOCC(=O)N[C@@H](CCC(=O)NCCOCCOCC(=O)NCCCCCCCCCCCCC(=O)O)C(=O)O)NC(=O)[C@H](CCC(=O)O)NC(=O)[C@H](C(C)C)NC(=O)[C@H](CC2CCCCC2)NC(=O)[C@H](CCN)NC1=O` (stereo partly drawn) [Compound 3902] ({CH2CO}-[Thr(3ξ)]Y(Carboxymethyl)D[Phe(3-CF3)][Phe(4-COOH)][Bip]Y(Carboxymethyl)[Orn][dL][Dab][Cha]VEC[Dab][AEEA][γGlu][AEEA]-{NH(CH2)12COOH}; thioether N-14) stands 67.2 nM; under `CNC[C@@H]1NC(=O)CSC[C@@H](C(=O)N[C@@H](CCN)C(=O)NCCOCCOCC(=O)N[C@@H](CCC(=O)NCCOCCOCC(=O)NCCCCCCCCCCCCC(=O)O)C(=O)O)NC(=O)[C@H](CO)NC(=O)[C@H](C(C)(C)O)NC(=O)[C@H](CC2CCCCC2)NC(=O)[C@H](CCN)NC(=O)[C@@H](CC(C)C)NC(=O)[C@H](CCCN)NC(=O)[C@H](Cc2ccc(C(=O)O)cc2)NC(=O)[C@H](Cc2ccc(-c3ccccc3)cc2)NC(=O)[C@H](Cc2ccc(C(=O)O)cc2)NC(=O)[C@H](Cc2cccc(C(F)(F)F)c2)NC(=O)[C@H](CC(=O)O)NC(=O)[C@H](Cc2ccc(OCC(=O)O)cc2)NC1=O` [Compound 3903] ({CH2CO}-[Dap(Me)]Y(Carboxymethyl)D[Phe(3-CF3)][Phe(4-COOH)][Bip][Phe(4-COOH)][Orn][dL][Dab][Cha][Val(3-OH)]SC[Dab][AEEA][γGlu][AEEA]-{NH(CH2)12COOH}; thioether N-14), 49.7 nM.

The values are drawn from patent US20260022142A1, “MACROCYCLIC IMMUNOMODULATORS” (Bristol-Myers Squibb Company, priority 2022, published 2026).
